Results on one compound are retold here after patent US5098933A, “Pharmaceutically useful Michael addition products of unsaturated aldehydes and ketones and ascorbic acid” (Theracel Corporation, priority 1990, dated 1992).

Data set [1] concerns interleukin-2. The data set can be described thus: Immunomodulation panel: In vitro production of interleukin-2 (CTLL2 bioassay). Format: in vivo, C57BL/6J mice. The text has this:
The bioassay uses the IL-2 growth-dependent cell line, CTLL2 as the indicator cell line to quantitate IL-2 in a biological fluid. The assay utilizes tritiated thymidine uptake by these cells as a measure of cellular proliferation. A reference standard obtained from the NCI Biological Response Modifiers Program is employed to construct a standard curve and to calculate Half Maximal Units (HMU) activity per ml. The assay was modified from one reported by Gillis et al. (J. Immunol. 120: 2927, 1978) and was recently reviewed as a clinical bioassay (Shalaby and Pallidino, In: Manual of Clinical Laboratory Immunology, 3rd Ed., p 300, American Society for Microbiology, Washington, D.C.).
2. Each sample is assayed in triplicate, over dilutions of 1/2, 1/4, 1/8, and 1/16 in a 96 well flat bottom plate. A totoal of eight (8) samples may be assayed in a single 96 well plate.
Analysis: Values are obtained from counter as counts per minute (cpm). The average of each triplicate sample dilution count is calculated. A standard curve of known half maximal units of the IL-2 standard dilution/cpm is constructed using a PC program for generation of the least squares line of best fit. IL-2 values are thus assessed for each sample based upon the standard curve and reported.
Daily intraperitoneal injections of KCPBL were administered to normal animals and immunological responsiveness to mitogens and specific antigen evaluated.
Doses and schedule--Doses were selected to bracket the range generally known to be immunostimulatory in past experiments, 1, 10, and […] daily for four days.
As an assessment of immunopathology in the above screening test panel, the cellularity of the spleen was evaluated by determination of the total number of splenocytes harvested. Humoral-mediated immunity was measured by enumerating IgM plaque-forming cells to the T-dependent antigen sheep erythrocytes. Cell-mediated immunity was evaluated as described above by determination of the ability of the splenocytes to produce the lymphokine interleukin-2 in response to stimulation by the mitogen concanavalin-A. Another measurement of cell-mediated immunity was the responsiveness of the splenic lymphocytes to the mitogens concanavalin-A (Con-A); phytohemagglutinin (PHA) and pokeweed mitogen (PWM) in the lymphocyte blastogenesis assay. In the latter test, the activation and proliferation of the lymphocytes to the mitogens represents the capability of the cells to sequentially pass from G0 to G1 and the S phse of the cell cycle. The responsiveness of the cells was measured by the uptake of radiolabeled 14C-thymidine.

A short description of data set [2]: Pharmacokinetics of 3H-KCPBL in mice, plasma levels. It counts as in vivo. The following applies: intravenous, mouse, through 6 hours. How it is done:
The objectives of these tests were to evaluate the pharmacokinetics of radiolabeled KCPBL when administered either perorally or intravenously to mice.
3H-KCPBL was prepared from the pure drug substance KCPBL by an exchange procedure using high specific activity tritiated water. The product was purified by reverse phase high performance liquid chromatography and then freeze-dried. Analysis was carried out on ^3 H-KCPBL reconstituted in water. Specific activity was not less than 185 GBg/mmol or 5 Ci/mmol and the molecular weight of the product is 258. HPLC analysis for purity was performed using a Zorbax C8 column (25 cm×4.6) eluting with water: acetonitrile (930:70).
In the mouse studies, 3H-KCPBL was dissolved in sterile pyrogen-free saline containing […] of non-radiolabeled KCPBL. The final concentration of the test article in an injection volume of 0.1 ml was 66.6 mcCi. One tenth ml was administered intravenously for plasma level and tissue biodistribution studies. Peroral dosages were prepared in a manner consistent with this approach.
Mice were given intravenous doses of 3H-KCPBL to evaluate its biodistribution in this laboratory animal model.

Data set [3] has as its system immune system. The data set can be described thus: Tests to establish immunomodulatory properties (overall statement). Format: in vivo. The settings on record: normal antigen stimulated mice. How it is done:
The following tests were conducted on various compounds within the scope of this invention to establish their immunodmodulatory properties. […] Conversely, at higher dosage levels, e.g. about 200 to 600 mg/kg body weight they function as immunoinhibitors.
The tests used to establish immunostimulation were:

Data set [4] concerns splenocytes. The experiment in a line: Immunotoxicity--Multi-dose: total spleen cell counts (Coulter Counter). It counts as in vivo, mice. The method, then: The immunotoxicological potential of KCPBL was evaluated in this experiment in which the study drug was administered to CD-1 mice for fourteen days (100 or 1000 mg/kg/day), either perorally (by gavage) or intravenously (tail vein). On the fifteenth day, the mice were weighed and sacrificed. The spleen, lungs, liver, kidneys and thymus were removed from each animal, fixed in formalin and histopathologically evaluated. In addition, a differential white blood cell count was obtained for a peripheral blood sample as well as the following tests performed: spleen cell counts (performed with Coulter Counter) and lymphocyte stimulation assays using PHA, CON-A and PWM techniques.
The study incorporated five treatment groups into its design: group 1, sham intravenous control; group 2, 100 mg/kg/day perorally; group 3, 1000 mg/kg/day intravenously; group 4, […], and, group 5, 100 mg/kg/day intravenously. Mice were administered KCPBL daily for a total of fourteen days via the oral (0.2 ml of a 147.5 mg/ml solution or a 29.5 mg/ml solution by gavage) and intravenous route (0.2 ml of 147.5 mg/ml solution or a 29.5 mg/ml solution by tail vein) to achieve a dose of 100 or 1000 mg/kg, respectively. The test dose was prepared fresh daily and dissolved in sterile non-pyrogenic saline. On the fifteenth day the mice were weighed, sacrificed, and the spleens, lungs, livers, kidneys and thymuses removed. These organs were weighed and, except for the spleens, the formalin-fixed organs were analyzed by a veterinary pathologist. Only two randomly-selected sets of animal organs per treatment group were histopathologically evaluated since the remaining three animals were used to isolate splenic lymphocytes for use in cellular immunoassays.
A leukocyte differential was obtained on peripheral blood samples and spleen cell counts (performed with Coulter Counter), and an IL-2 induction assessment as well as standard lymphocyte stimulation assays using PHA, CON-A and PWM conducted.

With `O=C1CCC(C2(O)C(=O)OC3C(O)COC32O)C1` (centres unmarked) [KCPBL], the entries for the “IL-2 Half Maximal Units” value in data set [1] (1.0 mg/kg i.p.), in data set [1] (10 mg/kg i.p.) and in data set [1] (100 mg/kg i.p.) were 4.48 ± 1.5 Half Maximal Units [10^6 Cells, 4.33 ± 1.4 Half Maximal Units [10^6 Cells and 4.14 ± 1.3 Half Maximal Units [10^6 Cells, respectively. The “IL-2 production vs controls” value in data set [1] (drug-treated animals) is given as “produced significantly more IL-2 than controls”. The serum level profile result in data set [2] was “immediate peak serum drug level followed by a steep decline”. For the same compound, the “immunostimulatory activity on T-helper (Th) mediated lymphocyte functions” value in data set [3] was “demonstrated an immunostimulatory activity on T-helper (Th) mediated lymphocyte functions”. Moreover, the “Total Splenocytes” value was 4.03 ± 0.33 × 10^7 Cells in data set [4] (100 mg/kg IV (group 5)), 4.15 ± 0.18 × 10^7 Cells in data set [4] (100 mg/kg P.O. (group 4)), 3.12 ± 0.67 × 10^7 Cells in data set [4] (1000 mg/kg IV (group 3)) and 3.73 ± 0.30 × 10^7 Cells in data set [4] (1000 mg/kg P.O. (group 2)). Further, in data set [4] (treated vs control), the “total spleen cell counts, significance” value was “not statistically significantly different”.
